Results taken from US20240131007A1, “METHODS AND COMPOSITIONS FOR PICORNAVIRUS ANTI-VIRAL AGENTS” (University of Connecticut, priority 2022, published 2024).
Entries after “also recorded” stand apart in the source; their conditions may differ. Structures can show the parent of a compound that is named as a salt. Where two headings read alike, the source gives them in different places.

How the values were obtained:
EV-A71 Δ2C^116-329 [1] = biological target: T1, EV-A71 Δ2C^116-329 (Human enterovirus 71, UniProt Q66478); test: biochemical; format: biochemical; conditions: for inhibition of the ATPase function of Δ2C^116-329 (absorbance below 3SD cutoff): single concentration 50 μM
T1 construct: EV-A71 Δ2C (amino acids 116-329) was designed with; made in house; host or cells: E. coli Rosetta 2(DE3) pLysS, pMALc5x vector
T1 sequence (Q66478 1227-1440, stated change not applied): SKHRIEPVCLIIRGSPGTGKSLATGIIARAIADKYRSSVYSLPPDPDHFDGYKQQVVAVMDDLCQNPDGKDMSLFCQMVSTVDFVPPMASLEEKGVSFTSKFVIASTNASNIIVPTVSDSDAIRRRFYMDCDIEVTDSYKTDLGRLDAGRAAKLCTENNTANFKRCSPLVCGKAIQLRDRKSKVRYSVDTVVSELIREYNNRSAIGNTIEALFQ

EV-A71 = test: CPE inhibition assay (Cell Titer Glo) against EV-A71 in Vero cells; format: cell-based, Enterovirus A71; conditions: for anti-viral activity (luminescence above 3SD cutoff): single concentration 50 μM
[2] = biological target: T2, EV-A71 Δ2C^116-329 (2C ATPase) (Enterovirus A71, UniProt B9VUU3); test: 2C ATPase inhibition assay (colorimetric malachite green, dose response); format: biochemical
T2 construct: Ni-NTA and SEC purified
T2 sequence (B9VUU3 1227-1440, stated change not applied): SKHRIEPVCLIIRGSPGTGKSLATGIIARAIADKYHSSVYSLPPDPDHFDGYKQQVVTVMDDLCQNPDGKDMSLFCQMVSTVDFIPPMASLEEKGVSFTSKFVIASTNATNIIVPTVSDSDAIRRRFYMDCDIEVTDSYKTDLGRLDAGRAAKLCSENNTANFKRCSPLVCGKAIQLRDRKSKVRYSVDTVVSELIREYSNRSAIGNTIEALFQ

in vitro [3] = conditions: African green monkey
[4] = system: EV-A71-TN (VP1-T237N mutant); format: cell-based, Enterovirus A71; conditions: 500 μM compound; Vero cells
wild type EV-A71 (WT) = format: cell-based; conditions: 500 μM compound; Vero cells
EV-A71 Δ2C^116-329 [5] = conditions: previously observed; cited from earlier work
Vero cells = test: Cytotoxicity assay (Cell Titer Glo); conditions: for CC50: Vero cells
[6] = Cytotoxicity assay (Cell Titer Glo); conditions: African green monkey, CC50 (μM), Table 6; Vero cells
in vitro [7] = test: in vitro
[8] = system: Middle East Respiratory Syndrome; format: cell-based
[9] = system: poliovirus Mahoney strain; test: microbe, parasite or virus in culture; format: cell-based; conditions: Enterovirus C, Vero, read-out: IC50 for virus induced CPE inhibition
EV-71 [10] = test: NIAID Antiviral Program for Pandemics primary assay (CPE/Tox), EV-71; conditions: Enterovirus A
[11] = as above; conditions: CC50 µM, primary assay, EV-71
[12] = system: Eastern equine encephalitis virus; format: cell-based
EV-A71 replicon = EV-A71 replicon assay in HeLa cells; conditions: 1, 5 or 25 μM, 14 hours post transfection
influenza A (H1N1) = test: NIAID cytopathic effect assay, influenza A (H1N1); format: cell-based
EV-71 [13] = test: NIAID secondary assay, Neutral Red (CPE/Tox), EV-71; conditions: Enterovirus A, EV71, read-out: EC50 μM
[14] = as above
[15] = system: coxsackievirus-B3 (CV-B3); test: CPE inhibition assay against CV-B3 in HeLa cells; format: cell-based
EV-71 [16] = test: microbe, parasite or virus in culture; conditions: Enterovirus A, EV71, read-out: EC90 μM
EV-D68 = test: CPE inhibition assay against EV-D68 in Vero cells; format: cell-based; conditions: Enterovirus D, EVD68, read-out: IC50 for virus induced CPE inhibition
EV-68 [17] = test: NIAID secondary assay, Virus Yield Reduction, EV-68; conditions: Enterovirus D, EV68, read-out: EC90 μM
[18] = as above
PV-1 = format: cell-based, Poliovirus
EV-68 [19] = test: NIAID Antiviral Program for Pandemics primary assay (CPE/Tox), EV-68; conditions: Enterovirus D
[20] = as above; conditions: CC50 µM, primary assay, EV-68
EV-A71 Δ2C^116-329 [21] = biological target: T1, EV-A71 Δ2C^116-329; format: binding; conditions: 0.02 μM to 200 μM compound
CV-B3 = test: NIAID cytopathic effect assay, CV-B3; format: cell-based, Coxsackievirus B3
West Nile virus = test: NIAID cytopathic effect assay, West Nile virus; format: cell-based
human echovirus-30 = test: NIAID cytopathic effect assay, human echovirus-30; format: cell-based
EV-68 [22] = test: NIAID secondary assay, Neutral Red (CPE/Tox), EV-68; conditions: Enterovirus D, EV68, read-out: EC50 μM
[23] = as above
human echovirus-11 = test: NIAID cytopathic effect assay, human echovirus-11; format: cell-based
[24] = Enterovirus A, EVA71, EV-A71, Vero cells, read-out: IC50 for inhibition of virus-induced CPE
[25] = Enterovirus A, EVA71, Table 7, EV-A71, Vero cells, read-out: IC50

In the case of `O=C(Cn1nc2c(Oc3cccc(F)c3)nccn2c1=O)Nc1cccc(Cl)c1` [Compound 167, N-(3-chlorophenyl)-2-[8-(3-fluorophenoxy)-3-oxo-2H,3H-[1,2,4]triazolo[4,3-a]pyrazin-2-yl]acetamide], the “inhibition of the ATPase function of Δ2C^116-329 (absorbance below 3SD cutoff)” value (EV-A71 Δ2C^116-329 [1]) is reported as “inhibited 2C ATPase; also recorded: inhibited the ATPase function”, the IC50 (EV-A71; [24]) is reported as 59.4 µM and the IC50 (EV-A71; [25]) is reported as 59.4 µM. The “Selectivity Index” value (EV-A71; Table 7, CC50/IC50) was greater than 16.8, the selectivity index (EV-A71; from IC50 and CC50) was greater than 16.8 and the “anti-viral activity (luminescence above 3SD cutoff)” value (from here on “anti-viral activity”) (EV-A71; EV-A71, Vero cells) was “inhibited EV-A71”. It also gave an IC50 [2] of 61.2 µM, a CC50 at 3 days (in vitro [3]; CC50) greater than 400 µM and a CC50 at 3 days (in vitro [3]; CC50 (μM)) greater than 1000 µM. For the same compound, the “decrease in viral titer vs DMSO” value [4] was roughly 5 fold and the “decrease in viral titer vs DMSO” value (wild type EV-A71 (WT)) was roughly 100 fold.
In the case of `Cl.N=C(N)N` [GnHCl, Guanidinium hydrochloride, reference compound], the IC50 (EV-A71 Δ2C^116-329 [1]; read-out: IC50 for ATPase inhibition) is listed as 83600 µM, the IC50 (EV-A71; read-out: IC50 for inhibition of EV-A71) is listed as 140 µM and the “IC50 for inhibition of the ATPase activity of 2C” value (EV-A71 Δ2C^116-329 [5]) is listed as “millimolar range”.
For `Cc1[nH]c2ccc(Br)cc2c1CCN` [Compound T5, [2-(5-bromo-2-methyl-1H-indol-3-yl)ethyl]aminehydrochloride], the IC50 (EV-A71; Table 6, EV-A71, Vero cells, read-out: IC50) was 103 µM and the CC50 (Vero cells; Table 6) was 61.6 µM.
With `OC(COC(c1ccc(F)cc1)c1ccc(F)cc1)Cn1cnc2cc(F)c(F)cc21` (stereo not drawn) [Compound 108, 1-[bis(4-fluorophenyl)methoxy]-3-(5,6-difluoro-1H-1,3-benzodiazol-1-yl)propan-2-ol] the “inhibition of the ATPase function of Δ2C^116-329 (absorbance below 3SD cutoff)” value (EV-A71 Δ2C^116-329 [1]) was “inhibited 2C ATPase; also recorded: inhibited the ATPase function”, the “anti-viral activity” value (EV-A71; EV-A71, Vero cells) was “did not show activity above the threshold value” and the IC50 [2] was 57.3 µM.
For “N-[4-(5-methyl-1H-benzimidazol-2-yl)phenyl]-2-(3-7-phenylthio)acetamide [Compound 42]”, the IC50 (EV-A71; Table 10, Scaffold 1, EV-A71, Vero cells, read-out: IC50) was 6.99 µM and the CC50 (Vero cells; Table 10, Scaffold 1) was 684 µM.
For `O=c1nc(C=Cc2cn(Cc3ccccc3Cl)c3ccccc23)cc(C(F)(F)F)[nH]1` [Compound 139, 4-(2-{1-[(2-chlorophenyl)methyl]-1H-indol-3-yl}ethenyl)-6-(trifluoromethyl)-1,2-dihydropyrimidin-2-one], the “inhibition of the ATPase function of Δ2C^116-329 (absorbance below 3SD cutoff)” value (EV-A71 Δ2C^116-329 [1]) was “inhibited 2C ATPase; also recorded: inhibited the ATPase function”, the “anti-viral activity” value (EV-A71; EV-A71, Vero cells) was “did not show activity above the threshold value” and the IC50 [2] was 71.3 µM.
With `Nc1nc(N)nc(COC(=O)CCc2c(-c3ccc(F)cc3)[nH]c3ccc(F)cc23)n1` [Compound 111, (4,6-diamino-1,3,5-triazin-2-yl)methyl 3-[5-fluoro-2-(4-fluorophenyl)-1H-indol-3-yl]propanoate] the “inhibition of the ATPase function of Δ2C^116-329 (absorbance below 3SD cutoff)” value (EV-A71 Δ2C^116-329 [1]) was “inhibited 2C ATPase; also recorded: inhibited the ATPase function”, the IC50 (EV-A71; [24]) was 44.7 µM and the IC50 (EV-A71; [25]) was 44.7 µM. For the same compound, the “Selectivity Index” value (EV-A71; Table 7, CC50/IC50) was 9.44, the selectivity index (EV-A71; from IC50 and CC50) was 9.44 and the “anti-viral activity” value (EV-A71; EV-A71, Vero cells) was “inhibited EV-A71”. For the same compound, the IC50 [2] was 7.5 µM, the CC50 at 3 days (in vitro [3]; CC50) was 422 µM and the CC50 at 3 days (in vitro [3]; CC50 (μM)) was 422 µM.
For `Cc1ccc2[nH]c(-c3ccc(NC(=O)c4ccco4)cc3)nc2c1` [Compound T3, N-[4-(5-methyl-1H-benzimidazol-2-yl)phenyl]-2-furamide], the IC50 (EV-A71; [24]) was 2.9 µM, the IC50 (EV-A71; Enterovirus A, EVA71, Table 6, EV-A71, Vero cells, read-out: IC50) was 2.9 µM and the “Selectivity Index” value (EV-A71; Table 6, CC50/IC50) was greater than 68.97. The selectivity index (EV-A71; from IC50 and CC50) was greater than 68.9, the “toxicity to Vero cells” value (Vero cells; up to 200 μM) was “no toxicity” and the CC50 at 3 days [6] was greater than 200 µM.
With `Cc1ccc2[nH]c(-c3ccc(NC(=O)c4cccs4)cc3)nc2c1` [Compound 36, N-[4-(5-methyl-1H-benzimidazol-2-yl)phenyl]-2-thiophenecarboxamide] the IC50 (EV-A71 Δ2C^116-329 [1]) was 23.4 µM, the “dose dependence of inhibition of the ATPase function of Δ2C^116-329” value (EV-A71 Δ2C^116-329 [1]; dose response) was “clear dose-dependent response” and the “Selectivity Index” value (EV-A71) was 29.59. The selectivity index (EV-A71) was 29.6, the IC50 (EV-A71; [24]) was 2.66 µM and the IC50 (EV-A71; Enterovirus A, EVA71, Table 8, virus-induced CPE, EV-A71, Vero cells, read-out: IC50) was 2.66 µM. The CC50 (in vitro [7]) was 27 µM, the “activity against Middle East Respiratory Syndrome” value [8] was “no activity” and the IC50 [9] was 1.7 µM. It also gave an EC50 (EV-71 [10]; EV71, read-out: EC50 μM, primary assay, EV-71, Neutral Red (CPE/Tox)) of 4.7 µM, an EC50 (EV-71 [10]; EV71, read-out: EC50 μM, primary assay, EV-71, Visual (CPE/Tox)) greater than 32 µM and an EC50 (EV-71 [10]; EV71|EVA71, read-out: EC50 against EV-A71, text, primary cytopathic effect assay) of 4.2 µM. For the same compound, the CC50 ([11]; Neutral Red (CPE/Tox)) was 42 µM, the CC50 ([11]; Visual (CPE/Tox)) was 32 µM and the “activity against Eastern equine encephalitis virus” value [12] was “no activity”. For the same compound, the “number of reporter positive cells compared with the untreated control” value (EV-A71 replicon) was “no statistically significant difference”, the “activity against influenza A (H1N1)” value (influenza A (H1N1)) was “no activity” and the EC50 (EV-71 [13]) was 1.7 µM. The CC50 [14] was 25 µM, the “inhibition of CV-B3” value [15] was “did not inhibit; also recorded: not active” and the EC90 (EV-71 [16]) was 3.2 µM. For the same compound, the IC50 (EV-D68) was 0.85 µM, the EC90 (EV-68 [17]) was 0.59 µM and the CC50 [18] was 9.4 µM. For the same compound, the “activity against PV-1” value (PV-1) was “no activity”, the CC50 at 3 days (in vitro [3]; CC50) was 78.7 µM and the CC50 at 3 days (in vitro [3]; CC50 (μM)) was 78.7 µM. The EC50 (EV-68 [19]; EV68, read-out: EC50 μM, primary assay, EV-68, Neutral Red (CPE/Tox)) was 0.39 µM, the EC50 (EV-68 [19]; EV68, read-out: EC50 μM, primary assay, EV-68, Visual (CPE/Tox)) was 0.52 µM and the EC50 (EV-68 [19]; EV68|EVD68, read-out: EC50 against EV-D68, text, primary cytopathic effect assay) was 0.39 to 0.52 µM. For the same compound, the CC50 ([20]; Neutral Red (CPE/Tox)) was 9 µM, the CC50 ([20]; Visual (CPE/Tox)) was 24 µM and the “shift in melting temperature (Tm) of Δ2C^116-329” value (EV-A71 Δ2C^116-329 [21]) was “dose-dependent increase in the Tm”. For the same compound, the “activity against CV-B3” value (CV-B3) was “no activity”, the “activity against West Nile virus” value (West Nile virus) was “no activity” and the “activity against human echovirus-30” value (human echovirus-30) was “no activity”. For the same compound, the EC50 (EV-68 [22]) was 0.52 µM, the CC50 [23] was 3.5 µM and the “activity against human echovirus-11” value (human echovirus-11) was “no activity”.
